One data set has as its target T1, CYP3A4 (Homo sapiens, UniProt P08684).
T1 construct: The incubations consisted of human liver microsomal protein at 0.4 mg/ml; from tissue; host or cells: human liver microsomes
Description: CYP 3A4 Assay (Luc, luminescence, human liver microsomes). It counts as in vitro ADME. To be noted: human liver microsomes 0.4 mg/mL, substrate LUC-LIPA. On the procedure:
Each assay was preformed in ½ well plates. Test compounds were examined at six concentrations in DMSO that were serial diluted to: 2, 0.6, 0.2, 0.07, 0.02, and 0.007 mM (from left to right) and at 100×; 0.5 ul of these dilutions were added to two empty assay plates (resulting in final assay concentrations of 20, 6, 2, 0.7, 0.2, and 0.07 uM. The control and vehicle were added to the plate at 100× with the same dilution scheme.
The incubations consisted of human liver microsomal protein at 0.4 mg/ml in 100 mM KPO4 buffer, 125 uM NADPH and Regeneration mix in phosphate buffer at pH 7.4.
CYP3A4 requires a pre-incubation using the following recipe:
• CYP3A4—5 μM LUC-LIPA in 100 mM phosphate buffer pH 7.4 • Assay Procedure for CYP3A4: • 1. 40 uL of the Pre-incubation Mixture was added to all wells of the assay plates. • 2. Plates were pre-incubated for 10 minutes at 37° C., with shaking or rocking. (No pre-read is necessary for the luminescence assays CYP2C9 and CYP3A4). • 3. 10 μL of Substrate Solution was added to all wells of the assay plates. • 4. Plates were incubated for an additional 25 minutes at 37° C., with shaking or rocking. • 5. added 50 μl of stop/developer from respective kits, and incubated for 20 minutes to 2 hours with shaking at room temperature prior to reading. […]

The next data set has as its target T2, Aurora B (Homo sapiens, UniProt Q96GD4).
T2 construct: Active Aurora B enzyme (recombinant residues 1-344)
As to the kind of experiment: Aurora B enzyme assay (time-resolved fluorescence). It counts as biochemical. To be noted: 1 mM ATP, with INCENP. On the procedure:
After 1 hour, the reaction was stopped with EDTA and anti-phospho-histone H3 Europium Cryptate (Cis-Bio) and SA-APC (Phycolink, Prozyme) were added to detect the phosphopeptide. The amount of phosphorylation was determined by the time-resolved fluorescence ratio of signals at 665 nm and 615 nm. The IC50's were calculated by an exponential fit of the inhibition values with the inhibitor concentrations using Assay Explorer software.

Data set [1] can be described thus: Determination of Thermodynamic Solubility. It counts as physicochemical. The following applies: PEG 300, 25 °C, organic solvent or mixture, thermodynamic from solid, PEG 300, Example 2 at 25° C., Example 1 at ambient temperature, read-out: Solubility (PEG300). On the procedure:
Aqueous pH 7.4 and PEG 300 samples were tested at 25° C. Excess amount of the bulk drug was weighed out and mixed with an aliquot of target media in a clear glass vial (n=3/solvent). The vial was capped, wrapped with aluminum foil, and tumbled in a 25° C. water bath. When equilibration was completed, the samples were removed from the water bath and the final pH was measured, if applicable. The samples were centrifuged at 25° C. at 3000 rpm for 20 minutes. The supernatant was filtered through 4 mm 0.45 μm PTFE syringe filters. The filtrate was assayed after appropriate dilution (no dilution required for aqueous samples). The concentration of the sample was calculated against a calibration curve for the compound.
Solubility in pH 7.4 buffer was carried out as described above, except samples were not centrifuged before filtration. All other experimental steps were the same. PEG 300 and PEG 400 solubility were done at ambient temperature. Excess amount of the bulk drug was weighed out and mixed with an aliquot of target media in a clear glass vial with a small stir bar (n=3). The vials were placed on the stirrer at ˜500 rpm and allowed to equilibrate over the weekend. Samples were filtered through 13 mm 0.45 μm GHP syringe filters. The filtrate was assayed after appropriate dilutions, and concentrations determined against a calibration curve for the compound.

Another data set addresses T3, FLT1 (Homo sapiens, UniProt P17948).
T3 construct: His6
T3 sequence (P17948 786-1338 limits assumed): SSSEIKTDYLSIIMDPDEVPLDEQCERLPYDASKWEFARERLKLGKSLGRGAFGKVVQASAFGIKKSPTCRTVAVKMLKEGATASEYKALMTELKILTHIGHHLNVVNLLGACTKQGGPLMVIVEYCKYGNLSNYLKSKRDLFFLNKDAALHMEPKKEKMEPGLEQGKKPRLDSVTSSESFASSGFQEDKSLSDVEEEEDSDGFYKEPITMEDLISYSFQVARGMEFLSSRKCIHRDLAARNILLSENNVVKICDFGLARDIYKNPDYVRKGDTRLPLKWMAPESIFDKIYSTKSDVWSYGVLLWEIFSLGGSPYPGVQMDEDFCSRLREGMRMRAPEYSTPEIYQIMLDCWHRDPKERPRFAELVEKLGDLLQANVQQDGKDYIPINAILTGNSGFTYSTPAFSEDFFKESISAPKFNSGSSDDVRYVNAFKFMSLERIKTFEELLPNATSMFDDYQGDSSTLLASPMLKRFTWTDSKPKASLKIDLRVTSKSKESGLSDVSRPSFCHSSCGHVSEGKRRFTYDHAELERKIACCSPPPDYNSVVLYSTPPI
As to the kind of experiment: HTRF in vitro kinase assay, FLT1. It counts as biochemical. The following applies: 1 mM ATP. On the procedure: To determine the activity of the various kinases, a homogenous time-resolved fluorescence (HTRF) in vitro kinase assay was used. (Mathis, G., HTRF(R) Technology. J Biomol Screen, 1999. 4(6): p. 309-314; Alfred J. Kolb, Paul V. Kaplita, David J. Hayes, Young-Whan Park, Christine Pernell, John S. Major and Gerard Mathis, Drug Discovery Today, 1998, 3, 333-342.)
For example for KDR, cKIT, FLT1, CSF1R and FTL3, purified enzyme was mixed with 0.5 μM N-biotinylated substrate (Biotin-Ahx-[…]-amide (SEQ. ID. 1)), various concentrations of inhibitor in reaction buffer (50 mM HEPES, pH 7.1, 10 mM MgCl2, 2 mM MnCl2, 0.1% BSA and 1 mM DTT, 40 μL final volume), ATP (1 mM final conc.) in a black 384-well plate. […] The quenched reaction was allowed to stand at room temperature for 3 hours and was then read in a time-resolved fluorescence detector (InVision, Perkin-Elmer) at 620 nm and 665 nm sequentially with excitation. The ratio between the signal of 620 nm and 665 nm was used in the calculation of the IC50.
(TR-FRET usually uses a lanthanide donor and a delayed reading to cut background.)

SMILES strings stand for the structures. In brackets after ≈: the same amount, converted by molar mass.

T2 sequence (Q96GD4 whole entry, the tested form may be a part): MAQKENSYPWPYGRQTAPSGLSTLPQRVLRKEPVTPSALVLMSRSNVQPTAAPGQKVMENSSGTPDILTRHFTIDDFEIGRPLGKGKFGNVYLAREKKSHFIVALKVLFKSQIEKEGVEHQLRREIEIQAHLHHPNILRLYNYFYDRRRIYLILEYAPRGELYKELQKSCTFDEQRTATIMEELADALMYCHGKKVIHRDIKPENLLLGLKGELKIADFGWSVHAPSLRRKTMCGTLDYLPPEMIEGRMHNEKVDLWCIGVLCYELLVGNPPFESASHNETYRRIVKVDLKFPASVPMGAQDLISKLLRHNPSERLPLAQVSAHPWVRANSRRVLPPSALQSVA
T2 sequence (Q9NQS7 803-918 partner limits assumed): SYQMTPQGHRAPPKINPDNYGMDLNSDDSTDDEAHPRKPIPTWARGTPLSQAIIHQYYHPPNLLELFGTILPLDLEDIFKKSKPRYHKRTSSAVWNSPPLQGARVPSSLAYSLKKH
T1 sequence (P08684 whole entry): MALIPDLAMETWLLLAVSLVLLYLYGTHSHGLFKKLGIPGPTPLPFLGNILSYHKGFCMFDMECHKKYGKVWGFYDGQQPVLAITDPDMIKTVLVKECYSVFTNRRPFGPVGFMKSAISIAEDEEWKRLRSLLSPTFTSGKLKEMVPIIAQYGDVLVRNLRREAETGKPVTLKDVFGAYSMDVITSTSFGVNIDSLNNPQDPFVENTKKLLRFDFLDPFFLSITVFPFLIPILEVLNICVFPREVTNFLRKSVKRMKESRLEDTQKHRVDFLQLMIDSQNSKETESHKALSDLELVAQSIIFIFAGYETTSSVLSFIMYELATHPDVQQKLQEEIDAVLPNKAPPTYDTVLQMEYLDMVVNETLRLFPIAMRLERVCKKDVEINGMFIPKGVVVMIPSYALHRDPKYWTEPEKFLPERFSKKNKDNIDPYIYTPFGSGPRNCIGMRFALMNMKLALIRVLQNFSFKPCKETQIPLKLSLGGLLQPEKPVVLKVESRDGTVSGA

The term IC50 denotes the concentration at which inhibition is half-maximal. One may read the solubility as how much of the substance goes into solution per volume. For the compound `CNC(=O)c1cnc(N)c2c(-c3ccc(NC(=O)Nc4cccc(C)c4)cc3)csc12` [Example 2, 4-amino-N-methyl-3-(4-{[(3-methylphenyl)carbamoyl]amino}phenyl)thieno[3,2-c]pyridine-7-carboxamide], the IC50 on CYP3A4 was above 20000 nM; on Aurora B, 1.3 nM; against FLT1, 2 nM. In addition, the solubility in data set [1] is 8400 µg/mL (≈ 19.5 mM).
